Common to all, as to format: physicochemical
The nature of data set [1]: Physical nature / hygroscopicity of the obtained solid (observation). The note with it: as obtained after drying.
Data set [2] can be described thus: Water content by Karl Fischer titration.
Protocol: The water content measurements were carried out using a Karl Fischer Titrator (Mettler Toledo Model DL-53), according to standard procedures.
Data set [3] is described as follows: Bulk and tapped density (Vankel tapped density tester).
Protocol: Bulk and tapped densities were measured using Varian's Vankel tapped density tester model 50-2300.
A short description of data set [4]: Storage stability of packed compressed tablets (amorphous form, purity by HPLC). The text has this:
The term “remains stable”, as defined herein, refers to lack of formation of impurities, while being stored as described herein (see Example 11).
The compressed tablets were packed in a packing comprising internal sealed polyethylene bag, containing the tablets, which was inserted into a middle opaque (e.g., black) polyethylene bag, which was then sealed, wherein the packaging was sealed effectively to prevent penetration of humidity and/or oxygen. The polyethylene bag was packed and sealed in a laminated aluminum bag containing silica.
The samples were packed in the above-mentioned packaging and stored at room temperate and at 40° C. Samples were withdrawn periodically after 5, 8, 13 and 30 days and the purity of the withdrawn material was checked by HPLC.

Data set [5] can be described thus: Retention of amorphous form after compressing at high pressure, checked by X-ray diffractometer. The note with it: about 7.5 tons/cm^2 for 15 minutes. The protocol:
X-ray diffraction data were acquired using a PHILIPS X-ray diffractometer model PW1050-70. System description: Kα1=1.54178 Å, voltage 40 kV, current 28 mA, diversion slit=1°, receiving slit=0.2 mm, scattering slit=1° with a Graphite monochromator. Measurements of 2θ values typically are accurate to within ±0.2 degrees. Experiment parameters: pattern measured between 2θ=3° and 2θ=30° with 0.05° increments; count time was 0.5 second per increment. […]
The four samples, marked as 1-4, were checked by X-ray diffractometer after compressing and the results are detailed in Table 5.

Each structure is given as a SMILES string. Counter-ions that a name gives are not always drawn.

For the compound `Cc1ccc(NC(=O)c2ccc(CN3CCN(C)CC3)cc2)cc1Nc1nccc(-c2cccnc2)n1` [Example 1, imatinib mesylate], the “physical nature of the obtained solid (hygroscopicity, flow)” value (shortened to “physical nature of the obtained solid”) in data set [1] was “non-hygroscopic and free-flowing”. Moreover, in data set [2], the “% water in the product” value is listed as 4.1%. In data set [3], `Cc1ccc(NC(=O)c2ccc(CN3CCN(C)CC3)cc2)cc1Nc1nccc(-c2cccnc2)n1` [Example 2, imatinib mesylate] showed a bulk density of 0.29 g/mL and a tapped density of 0.39 g/mL. Take `Cc1ccc(NC(=O)c2ccc(CN3CCN(C)CC3)cc2)cc1Nc1nccc(-c2cccnc2)n1` [Example 3, imatinib mesylate]: the “% water in the product” value in data set [2] came out at 4.1%. On to `Cc1ccc(NC(=O)c2ccc(CN3CCN(C)CC3)cc2)cc1Nc1nccc(-c2cccnc2)n1` [Example 4, imatinib mesylate], for which the “% water in the product” value in data set [2] was found to be 3.7%.

On to `Cc1ccc(NC(=O)c2ccc(CN3CCN(C)CC3)cc2)cc1Nc1nccc(-c2cccnc2)n1` [Example 5, imatinib mesylate], for which, in data set [2], the “% water in the product” value is listed as 4.8%. For `Cc1ccc(NC(=O)c2ccc(CN3CCN(C)CC3)cc2)cc1Nc1nccc(-c2cccnc2)n1` [Example 6, imatinib mesylate], the “% water in the product” value in data set [2] turned out to be 3.8%. With `Cc1ccc(NC(=O)c2ccc(CN3CCN(C)CC3)cc2)cc1Nc1nccc(-c2cccnc2)n1` [Example 7, imatinib mesylate], the “% water in the product” value in data set [2] is recorded as 4.3%.

On to `Cc1ccc(NC(=O)c2ccc(CN3CCN(C)CC3)cc2)cc1Nc1nccc(-c2cccnc2)n1` [Example 8, imatinib mesylate], for which the “% water in the product” value in data set [2] was found to be 3.8%. In the case of `Cc1ccc(NC(=O)c2ccc(CN3CCN(C)CC3)cc2)cc1Nc1nccc(-c2cccnc2)n1` [Example 9, imatinib mesylate], the “% water in the product” value in data set [2] is listed as 4.9%. With `Cc1ccc(NC(=O)c2ccc(CN3CCN(C)CC3)cc2)cc1Nc1nccc(-c2cccnc2)n1` [Example 10, imatinib mesylate], the “% water in the product” value in data set [2] was determined as 3.2%. In the case of `Cc1ccc(NC(=O)c2ccc(CN3CCN(C)CC3)cc2)cc1Nc1nccc(-c2cccnc2)n1` [Reference Example 1, imatinib mesylate, reference compound], the “physical nature of the obtained solid” value in data set [1] was “glassy deliquescent material”. Further, the “% water in the product” value in data set [2] is reported as 2.2%.

Regarding `Cc1ccc(NC(=O)c2ccc(CN3CCN(C)CC3)cc2)cc1Nc1nccc(-c2cccnc2)n1` [Reference Example 2, imatinib mesylate, reference compound], the “physical nature of the obtained solid” value in data set [1] was “very electrostatic and tended to agglomerate”. Further, the “% water in the product” value in data set [2] is given as 1.7%. For `Cc1ccc(NC(=O)c2ccc(CN3CCN(C)CC3)cc2)cc1Nc1nccc(-c2cccnc2)n1` [amorphous imatinib mesylate, imatinib mesylate], the “stability and amorphous form on storage” value in data set [4] (stored at 25° C. for at least a month) is “remains stable and maintains its amorphous form”; in data set [4] (stored at 40° C. for at least a month) it was “remains stable and maintains its amorphous form”. Moreover, the “solid form after being compressed” value in data set [5] was “remains in amorphous form”.

Source of the values: patent publication US20080234286A1 (CHEMAGIS Ltd., priority 2007, published 2008).
